Test system: luteinizing hormone (LH) plasma levels
Assay: Castrated male rat model, circulating luteinizing hormone (LH)
Format: in vivo
Conditions: single intravenous 10 mg/kg dose, castrated male Sprague-Dawley rats, 1 hour after dosing
Source text: Castrated Male Rat Model to Assess the Effect of Compound of Invention on Circulating Levels of Luteinizing Hormone (LH).
Thus, a castrated rat model is used to provide a broad index for measurement of LH inhibition as a marker of test compound inhibition of the GnRH signaling pathway.
Castrated adult male Sprague-Dawley (SD) rats (150-175 g) were purchased from Janvier (St Berthevin, France). […] The animals were allowed 2 weeks of postoperative recovery prior to study. Animals were handled on a daily basis. Standard diet and tap water were provided ad libitum. […] On the study day, animals were acclimated to the procedure room for a period of one hour prior to the initiation of the experiment.
Compounds of the invention were formulated as apyrogen water with 90 g/L (2-Hydroxypropyl)-β-CycloDextrin.
After basal sampling (TO) a single dose of compounds of the invention or vehicle was administrated intravenously to rats. Blood was then collected at 60 min post dosing. Blood samples were obtained via tail vein bleed, drawn into EDTA-containing tubes and centrifuged immediately. […] Serum LH levels were determined using radioimmunoassay kit from RIAZEN—Rat LH, Zentech (Liege, Belgium). Baseline was defined as the initial basal blood sample.

In the case of `Cc1nc(-c2nnc3n2CCN(C(=O)c2ccc(-c4cccs4)cc2)[C@@H]3C)cs1` [Compound 1, (R)-(8-methyl-3-(2-methylthiazol-4-yl)-5,6-dihydro-[1,2,4]triazolo[4,3-a]pyrazin-7(8H)-yl)(4-(thiophen-2-yl)phenyl) methanone], the “circulating LH levels” value is reported as “significantly suppressed”.

`Cc1csc(-c2nnc3n2CCN(C(=O)c2ccc(-c4cccs4)cc2)[C@@H]3C)n1` [Compound 19, (R)-(8-methyl-3-(4-methylthiazol-2-yl)-5,6-dihydro-[1,2,4]triazolo[4,3-a]pyrazin-7(8H)-yl)(4-(thiophen-2-yl)phenyl)methanone] was tested, and the “circulating LH levels” value was “significantly suppressed”.

— patent US10683295B2, “Chiral N-acyl-5,6,7(8-substituted)-tetrahydro-[1,2,4]triazolo[4,3-A]pyrazines as selective NK-3 receptor antagonists, pharmaceutical composition, methods for use in NK-3 receptor mediated disorders and chiral synthesis thereof” (Ogeda SA, priority 2011, dated 2020)
